# Activity calls are given as the source filed them.
# Tests used:
# [1] = molecular target: T1, Sentrin-specific protease 7 (Homo sapiens, UniProt Q9BQF6); assay type: functional;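 also: Luminescence-based dose-response confirmation of ultra-high-throughput screening hits, measuring inhibition of SENP7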
# T1 sequence (Q9BQF6 whole entry): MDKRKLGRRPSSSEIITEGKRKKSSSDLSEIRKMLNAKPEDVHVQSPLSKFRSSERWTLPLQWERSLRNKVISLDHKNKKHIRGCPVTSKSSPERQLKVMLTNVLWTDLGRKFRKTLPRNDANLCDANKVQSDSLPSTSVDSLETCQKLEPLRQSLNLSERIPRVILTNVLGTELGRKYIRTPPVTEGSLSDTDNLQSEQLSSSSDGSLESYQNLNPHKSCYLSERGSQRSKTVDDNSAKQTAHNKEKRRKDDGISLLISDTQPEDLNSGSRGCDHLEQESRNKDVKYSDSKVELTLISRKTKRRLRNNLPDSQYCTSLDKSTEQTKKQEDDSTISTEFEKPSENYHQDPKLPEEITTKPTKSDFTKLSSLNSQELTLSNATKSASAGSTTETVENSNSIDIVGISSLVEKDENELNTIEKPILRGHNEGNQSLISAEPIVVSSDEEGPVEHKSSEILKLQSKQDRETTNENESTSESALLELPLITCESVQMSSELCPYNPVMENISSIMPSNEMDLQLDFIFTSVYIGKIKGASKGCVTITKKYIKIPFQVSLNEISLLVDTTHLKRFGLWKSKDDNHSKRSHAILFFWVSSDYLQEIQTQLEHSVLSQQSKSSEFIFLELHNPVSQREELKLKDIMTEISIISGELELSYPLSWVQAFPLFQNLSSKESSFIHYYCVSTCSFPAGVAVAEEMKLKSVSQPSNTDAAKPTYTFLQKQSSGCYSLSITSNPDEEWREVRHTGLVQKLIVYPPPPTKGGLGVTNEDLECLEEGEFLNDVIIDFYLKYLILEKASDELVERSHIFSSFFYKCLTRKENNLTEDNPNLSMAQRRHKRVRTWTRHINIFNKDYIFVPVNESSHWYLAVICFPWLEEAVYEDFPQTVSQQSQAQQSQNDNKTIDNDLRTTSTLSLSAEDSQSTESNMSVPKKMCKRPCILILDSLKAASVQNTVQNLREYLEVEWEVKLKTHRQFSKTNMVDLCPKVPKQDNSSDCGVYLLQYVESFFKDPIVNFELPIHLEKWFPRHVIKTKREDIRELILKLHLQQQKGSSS
# [2] = molecular target: T2, Sentrin-specific protease 6 (Homo sapiens, UniProt Q9GZR1); assay type: functional
# T2 sequence (Q9GZR1 whole entry): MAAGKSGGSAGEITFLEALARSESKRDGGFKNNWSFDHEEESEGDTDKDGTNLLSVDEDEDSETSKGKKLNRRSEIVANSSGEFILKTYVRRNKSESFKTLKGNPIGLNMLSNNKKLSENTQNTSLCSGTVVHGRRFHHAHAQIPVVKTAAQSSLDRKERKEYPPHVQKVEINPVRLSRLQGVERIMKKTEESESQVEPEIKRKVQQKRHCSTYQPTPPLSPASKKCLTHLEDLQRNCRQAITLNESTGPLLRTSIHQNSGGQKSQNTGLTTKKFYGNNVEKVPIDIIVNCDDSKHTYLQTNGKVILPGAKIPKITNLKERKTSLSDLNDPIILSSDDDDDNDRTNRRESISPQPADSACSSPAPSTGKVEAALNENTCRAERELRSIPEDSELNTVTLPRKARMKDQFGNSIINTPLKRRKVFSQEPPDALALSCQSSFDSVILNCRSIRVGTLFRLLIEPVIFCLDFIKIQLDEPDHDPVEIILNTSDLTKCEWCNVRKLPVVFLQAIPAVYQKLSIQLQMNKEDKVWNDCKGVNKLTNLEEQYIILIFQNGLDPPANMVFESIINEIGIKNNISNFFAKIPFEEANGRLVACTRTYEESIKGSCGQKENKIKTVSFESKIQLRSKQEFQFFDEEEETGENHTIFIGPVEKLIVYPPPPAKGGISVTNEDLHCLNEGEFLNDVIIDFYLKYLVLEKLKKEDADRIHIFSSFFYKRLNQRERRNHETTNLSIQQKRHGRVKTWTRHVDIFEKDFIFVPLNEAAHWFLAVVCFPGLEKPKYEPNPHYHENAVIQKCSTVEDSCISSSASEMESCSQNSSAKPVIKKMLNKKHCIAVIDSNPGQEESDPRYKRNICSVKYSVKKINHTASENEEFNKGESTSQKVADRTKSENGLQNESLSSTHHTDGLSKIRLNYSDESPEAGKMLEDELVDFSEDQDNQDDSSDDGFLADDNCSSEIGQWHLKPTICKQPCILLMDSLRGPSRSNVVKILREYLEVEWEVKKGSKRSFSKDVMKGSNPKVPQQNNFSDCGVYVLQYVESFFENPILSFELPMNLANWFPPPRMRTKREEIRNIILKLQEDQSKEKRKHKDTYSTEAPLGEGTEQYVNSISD
# [3] = molecular target: T2, Sentrin-specific protease 6; test: SAR Analysis of small molecule inhibitors of Sentrin-specific protease 6 (SENP6) using a Luminescent assay. [Related pubchem assays (depositor defined):AID2582, AID2599]; assay type: functional
# [4] = molecular target: T3, Sentrin-specific protease 8 (Homo sapiens, UniProt Q96LD8); assay type: functional;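 also: luminescence read-out of SENP8 inhibition, dose-response confirmation following an ultra-high-throughput screen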
# T3 sequence (Q96LD8 whole entry): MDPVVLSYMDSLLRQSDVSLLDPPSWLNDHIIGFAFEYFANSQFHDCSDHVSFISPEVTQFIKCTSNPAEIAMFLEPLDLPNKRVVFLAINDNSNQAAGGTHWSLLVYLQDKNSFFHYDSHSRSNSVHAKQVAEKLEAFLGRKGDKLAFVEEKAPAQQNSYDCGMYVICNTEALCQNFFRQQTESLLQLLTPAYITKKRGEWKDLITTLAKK
# Caspase-3 [5] = molecular target: T4, Caspase-3 (Homo sapiens, UniProt P42574); assay type: functional
# T4 sequence (P42574 whole entry): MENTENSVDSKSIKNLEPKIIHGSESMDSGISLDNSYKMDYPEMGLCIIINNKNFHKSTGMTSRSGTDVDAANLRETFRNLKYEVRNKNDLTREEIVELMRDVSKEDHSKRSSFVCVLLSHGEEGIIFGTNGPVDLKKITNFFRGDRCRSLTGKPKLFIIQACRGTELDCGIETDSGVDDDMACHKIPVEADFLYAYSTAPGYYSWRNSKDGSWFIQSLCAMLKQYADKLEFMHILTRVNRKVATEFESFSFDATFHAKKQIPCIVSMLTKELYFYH
# Cytochrome P450 2C19 = Cytochrome P450 2C19 (Homo sapiens, UniProt P33261); test: Cytochrome panel assay with activity outcomes. Panel member name: p450-cyp2c19 Compounds with AC50 equal or less than 10 uM are considered active; assay type: functional; conditions: read-out: AC50
# Caspase-3 [6] = molecular target: T4, Caspase-3; test: SAR Analysis of small molecule inhibitors of Sentrin-specific proteases (SENPs) using a Caspase-3 Selectivity assay. [Related pubchem assays (depositor defined):AID2540, AID2599, AID434973, AID489001]; assay type: functional
# [7] = molecular target: T1, Sentrin-specific protease 7; test: SENP7 protease inhibitors, SAR follow-up, biochemical, luminescence (AID 504497); assay type: functional
# Cytochrome P450 2D6 = Cytochrome P450 2D6 (Homo sapiens, UniProt P10635);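 also: CYP2D6 member of a cytochrome P450 panel assay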
# Cytochrome P450 2C9 = Cytochrome P450 2C9 (Homo sapiens, UniProt P11712)
# [8] = molecular target: T3, Sentrin-specific protease 8; test: SENP8 protease inhibitors, SAR follow-up, biochemical, luminescence (AID 504501); assay type: functional
# Insulin-degrading enzyme [9] = molecular target: T5, Insulin-degrading enzyme (Homo sapiens, UniProt P14735); test: activators of recombinant IDE enzyme, dose response, counter-screen for IDE activator project, biochemical, fluorescence polarization (AID 588681)
# T5 sequence (P14735 whole entry): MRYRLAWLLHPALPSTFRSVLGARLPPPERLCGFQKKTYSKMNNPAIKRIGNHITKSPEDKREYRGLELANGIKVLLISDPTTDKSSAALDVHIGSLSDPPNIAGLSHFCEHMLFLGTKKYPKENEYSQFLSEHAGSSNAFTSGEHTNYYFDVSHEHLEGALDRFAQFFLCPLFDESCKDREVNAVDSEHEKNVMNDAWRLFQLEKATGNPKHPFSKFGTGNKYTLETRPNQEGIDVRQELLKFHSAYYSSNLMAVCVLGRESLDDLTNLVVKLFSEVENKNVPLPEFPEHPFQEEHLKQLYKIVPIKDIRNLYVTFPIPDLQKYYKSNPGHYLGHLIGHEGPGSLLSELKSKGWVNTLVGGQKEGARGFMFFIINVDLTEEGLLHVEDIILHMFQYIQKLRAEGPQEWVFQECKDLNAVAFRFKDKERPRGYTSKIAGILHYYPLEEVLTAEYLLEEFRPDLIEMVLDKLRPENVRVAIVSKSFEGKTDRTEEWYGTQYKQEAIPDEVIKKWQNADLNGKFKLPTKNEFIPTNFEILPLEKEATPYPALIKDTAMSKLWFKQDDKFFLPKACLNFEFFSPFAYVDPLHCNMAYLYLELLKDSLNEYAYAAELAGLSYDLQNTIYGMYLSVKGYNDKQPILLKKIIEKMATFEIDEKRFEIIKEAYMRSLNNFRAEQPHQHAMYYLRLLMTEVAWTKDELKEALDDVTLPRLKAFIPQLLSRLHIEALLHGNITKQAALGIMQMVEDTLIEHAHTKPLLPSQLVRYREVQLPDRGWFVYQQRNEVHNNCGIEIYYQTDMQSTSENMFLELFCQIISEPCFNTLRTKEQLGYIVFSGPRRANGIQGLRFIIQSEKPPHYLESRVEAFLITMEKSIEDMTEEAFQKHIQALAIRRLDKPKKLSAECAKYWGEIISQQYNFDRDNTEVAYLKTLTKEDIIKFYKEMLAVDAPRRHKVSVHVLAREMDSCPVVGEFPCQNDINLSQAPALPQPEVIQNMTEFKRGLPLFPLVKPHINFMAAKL
# [10] = molecular target: 72 kDa type IV collagenase (Homo sapiens, UniProt P08253); test: Dose Response validation of uHTS RPN11 inhibitor hits using a MMP-2 Fluorescence assay.; assay type: functional
# HEK293 [11] = test: optical interference in Abeta FP readout, dose response, artefact control for IDE activator project, biochemical, fluorescence polarization (AID 588442); assay type: functional, cell-based; conditions: Homo sapiens
# [12] = molecular target: 26S proteasome non-ATPase regulatory subunit 14 (Homo sapiens, UniProt O00487); test: inhibition of proteasome subunit RPN11 – biochemical, fluorescence polarization, uHTS hits, confirmation (AID 602368); assay type: functional
# [13] = system: Streptococcus sp. 'group A'; test: growth inhibition of control SK(-) GAS strain, dose response, counter-screen for streptokinase expression inhibitor project, luminescence, kanamycin, BacTiterGlo, confirmation (AID 1900); assay type: functional, organism-based
# Streptococcus = test: Group A Streptococcus viability loss, dose response, counter-screen for streptokinase expression inhibitor project, luminescence, BacTiterGlo (AID 1915); assay type: functional, organism-based;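 also: potency for reduction of bacterial viability or growth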
# CHO = test: cytotoxicity in TLR9-MyD88 CHO cells, dose response, cytotoxicity control for TLR9-MyD88 binding inhibitor project, cell-based, luminescence (AID 588339); assay type: functional, hamster; conditions: Cricetulus griseus;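 also: CHO cells stably coexpressing TLR9 and MyD88 fusions from primary screen; compound exposure lasted 48 hours before viability readout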
# HEK293 [14] = test: HEK cell cytotoxicity by LDH release, dose response, cytotoxicity control for IDE activator project, fluorescence, HEK cells (AID 588440); assay type: functional, cell-based; conditions: Homo sapiens;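 also: cytotoxicity by LDH release measuring loss of membrane integrity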
# Insulin-degrading enzyme [15] = molecular target: T5, Insulin-degrading enzyme; test: activators of endogenous IDE in HEK cells, dose response, cell-based, fluorescence polarization (AID 588439); assay type: functional
# Large T antigen = Large T antigen (Simian virus 40, UniProt P03070); assay type: functional, Betapolyomavirus macacae;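 also: Confirmatory-stage PubChem screen for compounds that inhibit SV40 T antigen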
# Prothrombin = Prothrombin (Bos taurus, UniProt P00735); test: thrombin inhibition, dose response, biochemical, fluorescence polarization, uHTS hits (AID 602369); assay type: functional
# Streptokinase A = molecular target: T6, Streptokinase A (Streptococcus pyogenes serotype M1, UniProt P10520); test: S. pyogenes streptokinase expression inhibitors, potency, dose response, plasminogen activation absorbance, OD405 (AID 1914); assay type: functional, Streptococcus pyogenes M1 GAS;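 also: secreted streptokinase activity via plasminogen activation per viability signal from cell pellet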
# T6 sequence (P10520 whole entry): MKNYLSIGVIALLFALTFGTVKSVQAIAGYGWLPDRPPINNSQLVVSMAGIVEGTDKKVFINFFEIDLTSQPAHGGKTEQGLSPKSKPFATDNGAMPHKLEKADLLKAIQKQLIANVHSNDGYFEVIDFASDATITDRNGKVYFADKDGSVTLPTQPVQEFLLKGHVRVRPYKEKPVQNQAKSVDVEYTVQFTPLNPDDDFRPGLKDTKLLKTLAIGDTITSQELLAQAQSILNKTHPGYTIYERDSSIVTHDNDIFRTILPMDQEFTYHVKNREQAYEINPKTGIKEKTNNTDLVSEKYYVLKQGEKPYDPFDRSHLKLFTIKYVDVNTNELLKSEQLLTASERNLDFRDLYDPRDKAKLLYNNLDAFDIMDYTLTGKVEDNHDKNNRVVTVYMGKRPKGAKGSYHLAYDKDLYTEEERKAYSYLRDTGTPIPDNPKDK
# Chain of 72 kDa type IV collagenase (P08253 whole entry): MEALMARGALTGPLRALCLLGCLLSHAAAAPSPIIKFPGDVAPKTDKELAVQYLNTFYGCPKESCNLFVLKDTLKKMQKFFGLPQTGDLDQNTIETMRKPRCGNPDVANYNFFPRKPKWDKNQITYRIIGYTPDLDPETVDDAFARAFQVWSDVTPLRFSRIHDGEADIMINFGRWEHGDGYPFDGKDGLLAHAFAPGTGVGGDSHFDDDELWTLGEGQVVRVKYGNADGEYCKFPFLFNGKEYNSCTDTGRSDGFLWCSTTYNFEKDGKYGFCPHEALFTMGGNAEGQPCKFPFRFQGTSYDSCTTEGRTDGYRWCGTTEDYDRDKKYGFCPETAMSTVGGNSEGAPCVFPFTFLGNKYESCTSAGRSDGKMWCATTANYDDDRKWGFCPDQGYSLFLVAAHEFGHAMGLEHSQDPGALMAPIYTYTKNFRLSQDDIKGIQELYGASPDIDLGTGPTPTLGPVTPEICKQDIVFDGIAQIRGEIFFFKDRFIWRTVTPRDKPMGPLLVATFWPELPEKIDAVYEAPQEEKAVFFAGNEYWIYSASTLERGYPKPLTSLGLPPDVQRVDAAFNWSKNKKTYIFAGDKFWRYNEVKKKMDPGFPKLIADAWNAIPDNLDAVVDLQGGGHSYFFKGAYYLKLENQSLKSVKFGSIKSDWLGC
# Chain of 26S proteasome non-ATPase regulatory subunit 14 (O00487 whole entry): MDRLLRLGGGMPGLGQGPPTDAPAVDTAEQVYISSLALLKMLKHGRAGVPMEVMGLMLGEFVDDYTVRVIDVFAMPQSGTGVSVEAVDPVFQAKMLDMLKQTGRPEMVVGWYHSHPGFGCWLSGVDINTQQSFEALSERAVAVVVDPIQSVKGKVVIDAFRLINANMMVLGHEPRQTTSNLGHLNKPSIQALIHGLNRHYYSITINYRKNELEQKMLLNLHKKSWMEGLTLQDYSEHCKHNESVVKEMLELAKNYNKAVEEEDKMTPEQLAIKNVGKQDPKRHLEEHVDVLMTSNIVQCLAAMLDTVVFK
# Chain of Cytochrome P450 2D6 (P10635 whole entry): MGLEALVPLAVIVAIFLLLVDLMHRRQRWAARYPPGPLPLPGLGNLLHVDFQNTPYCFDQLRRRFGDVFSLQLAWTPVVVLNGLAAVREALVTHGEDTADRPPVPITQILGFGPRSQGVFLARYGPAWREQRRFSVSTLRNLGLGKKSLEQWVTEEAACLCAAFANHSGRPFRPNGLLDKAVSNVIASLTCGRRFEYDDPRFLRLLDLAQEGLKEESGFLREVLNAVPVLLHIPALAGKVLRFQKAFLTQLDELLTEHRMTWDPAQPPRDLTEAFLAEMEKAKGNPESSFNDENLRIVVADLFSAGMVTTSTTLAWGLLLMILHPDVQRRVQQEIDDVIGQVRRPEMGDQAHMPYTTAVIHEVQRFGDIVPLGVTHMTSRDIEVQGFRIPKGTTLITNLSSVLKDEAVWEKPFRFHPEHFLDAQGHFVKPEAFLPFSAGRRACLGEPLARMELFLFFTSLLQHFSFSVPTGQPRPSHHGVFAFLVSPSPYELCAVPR
# Chain of Large T antigen (P03070 whole entry): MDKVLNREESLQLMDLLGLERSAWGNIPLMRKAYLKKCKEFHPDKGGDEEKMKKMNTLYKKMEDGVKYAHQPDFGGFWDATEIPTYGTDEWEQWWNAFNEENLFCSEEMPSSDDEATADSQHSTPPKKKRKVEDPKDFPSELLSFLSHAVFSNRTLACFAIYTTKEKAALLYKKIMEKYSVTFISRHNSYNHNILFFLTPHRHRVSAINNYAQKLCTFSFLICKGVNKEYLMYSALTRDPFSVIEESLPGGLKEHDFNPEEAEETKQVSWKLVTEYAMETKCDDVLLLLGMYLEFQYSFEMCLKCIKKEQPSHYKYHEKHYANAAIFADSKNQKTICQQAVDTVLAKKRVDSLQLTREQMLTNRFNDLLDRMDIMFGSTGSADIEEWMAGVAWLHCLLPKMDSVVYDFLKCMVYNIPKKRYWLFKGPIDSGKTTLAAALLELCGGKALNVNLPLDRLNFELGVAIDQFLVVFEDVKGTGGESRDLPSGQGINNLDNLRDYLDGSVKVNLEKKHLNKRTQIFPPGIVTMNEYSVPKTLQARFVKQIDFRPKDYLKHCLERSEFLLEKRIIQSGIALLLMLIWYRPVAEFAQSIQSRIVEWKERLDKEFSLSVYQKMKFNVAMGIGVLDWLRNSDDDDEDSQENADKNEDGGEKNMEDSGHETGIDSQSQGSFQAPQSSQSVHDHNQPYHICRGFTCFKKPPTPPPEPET
# Chain of Cytochrome P450 2C19 (P33261 whole entry): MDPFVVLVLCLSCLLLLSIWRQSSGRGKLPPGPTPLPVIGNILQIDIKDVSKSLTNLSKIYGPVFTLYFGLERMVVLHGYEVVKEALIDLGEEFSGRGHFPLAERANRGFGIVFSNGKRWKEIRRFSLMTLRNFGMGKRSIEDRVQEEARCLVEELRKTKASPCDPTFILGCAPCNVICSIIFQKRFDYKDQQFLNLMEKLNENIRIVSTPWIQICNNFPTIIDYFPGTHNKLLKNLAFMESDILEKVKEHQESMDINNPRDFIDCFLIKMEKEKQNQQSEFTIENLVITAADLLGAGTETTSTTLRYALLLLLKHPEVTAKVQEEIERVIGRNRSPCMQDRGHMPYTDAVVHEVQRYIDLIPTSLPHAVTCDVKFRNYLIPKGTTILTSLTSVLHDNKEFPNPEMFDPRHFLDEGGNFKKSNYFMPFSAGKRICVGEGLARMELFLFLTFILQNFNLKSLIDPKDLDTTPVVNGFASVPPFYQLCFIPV
# Chain of Cytochrome P450 2C9 (P11712 whole entry): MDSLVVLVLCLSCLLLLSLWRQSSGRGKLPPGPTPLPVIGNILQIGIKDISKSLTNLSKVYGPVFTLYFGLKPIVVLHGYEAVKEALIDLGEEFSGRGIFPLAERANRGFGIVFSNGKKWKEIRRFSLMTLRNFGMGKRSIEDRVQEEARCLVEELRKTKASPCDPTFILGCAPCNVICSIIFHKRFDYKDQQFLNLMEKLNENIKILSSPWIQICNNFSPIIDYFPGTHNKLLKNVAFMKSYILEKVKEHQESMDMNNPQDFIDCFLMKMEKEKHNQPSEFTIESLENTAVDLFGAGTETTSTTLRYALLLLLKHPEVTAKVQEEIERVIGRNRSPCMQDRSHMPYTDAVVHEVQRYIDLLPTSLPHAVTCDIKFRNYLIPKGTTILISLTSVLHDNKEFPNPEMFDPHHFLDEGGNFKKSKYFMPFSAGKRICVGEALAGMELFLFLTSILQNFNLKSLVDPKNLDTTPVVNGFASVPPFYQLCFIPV
structure (smiles),measurement,setting,value
Cc1ccc(/C=C/c2nnc(-c3cccs3)o2)cc1,IC50,[1],> 100 µM (inactive)
same,IC50,[2],> 100 µM (inactive)
same,IC50,[3],2 µM (active)
same,IC50,[4],24.3 µM (active)
same,IC50,Caspase-3 [5],> 100 µM (inactive)
same,AC50,Cytochrome P450 2C19,25.1 µM (inconclusive)
same,IC50,Caspase-3 [6],2 µM (active)
same,IC50,[7],1.7 µM (active)
same,AC50,Cytochrome P450 2D6,25.1 µM (inconclusive)
same,AC50,Cytochrome P450 2C9,10 µM (inconclusive)
same,IC50,[8],2.1 µM (active)
C#CCOCCOCCOCCNc1nc(N2CCN(C(=O)CCCCCCCCCCNC(=O)[C@H](CCCCN)n3cc(C[C@@H](C)CC)nn3)CC2)nc(N2CCN(C(=O)CCCCCCCCCCNC(=O)[C@H](CCCCN)n3cc(C[C@@H](C)CC)nn3)CC2)n1,EC50,Insulin-degrading enzyme [9],9.71 µM (active)
same,IC50,[10],> 100 µM (inactive)
same,EC50,HEK293 [11],> 54.7 µM (inactive)
same,IC50,[12],16.2 µM (active)
same,EC50,[13],2.86 µM (active)
same,EC50,Streptococcus,> 150 µM (not active)
same,IC50,CHO,5.63 µM (active)
same,IC50,HEK293 [14],4.19 µM (active)
same,EC50,Insulin-degrading enzyme [15],> 2.03 µM (active)
same,IC50,Large T antigen,36.5 µM (active)
same,IC50,Prothrombin,24.5 µM (active)
same,EC50,Streptokinase A,13.9 µM (active)

# Reference: ChEMBL document CHEMBL1201862, “PubChem BioAssay data set” (2004)
